The record followed here is patent publication US20090215669A1, “COMPOSITIONS AND METHODS FOR TREATMENT OF DIABETES” (DIA-B TECH LIMITED, priority 2005, published 2009).

Values after ≈ are worked out from the molar mass of the structure shown. Like-named read-outs stand apart in the source and are kept apart here. Marks after values point to notes of the source that are not given here. Peptide text beside a SMILES is read from it.

In series [1] the test system is C2C12 mouse myotube cells. Nature of the series: Microphysiometry (extracellular acidification rate) in C2C12 cells. In kind it is cell-based. The procedure: C2C12 mouse myotube cells were seeded onto supports and differentiated. The cells were then placed in a Cytosensor (Molecular Devices) in non-buffered pH sensitive RPMI 1640 media. Once the cells were equilibrated at 37° C. with RPMI 1640 media (zero control), ISF402, insulin or ZnCl2 at increasing concentrations were added for a duration of 20 minutes, for each treatment. The Cytosensor measured the changed in pH as a response of cells to the treatment.
The activity of the combination of insulin and ISF402 in insulin sensitisation was explored in C2C12 muscle cells using microphysiometry, a technique that measures extracellular acidification as an indicator of cell metabolism. An ISF402 concentration of 0.1 μM was used to test for sensitisation of insulin responsiveness as this concentration produces a sub-maximal (˜20%) response in C2C12 cells. In the presence of 0.1 μM ISF402, the cellular response to insulin was increased as shown by increasing extracellular acidification rate (ECAR) with increasing concentrations of insulin, particularly at low insulin concentrations (FIG. 3).

The test system of series [2] is female Zucker fa/fa rats. Nature of the series: Intravenous injection of female Zucker fa/fa rats: blood glucose, serum insulin, C-peptide, triglyceride. Conditions: for Change in Serum Triglyceride levels compared to the 0 time point: ISF402 alone 4.5 mg/kg, insulin, insulin + ISF402 1.5 mg/kg, mean ± SEM (n = 5); for maximum reduction in blood glucose: 45 minutes after administration. Format: in vivo, rat.

The target of a further series is T1, insulin multimer (Bos taurus, UniProt P01317).
T1 construct: mixing insulin with ISF402 and separating molecular complexes by gel filtration chromatography
T1 sequence (P01317 25-54 limits assumed): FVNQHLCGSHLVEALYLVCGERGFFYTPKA
T1 sequence (P01317 85-105 limits assumed): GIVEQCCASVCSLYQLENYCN
Nature of the series: Gel filtration chromatography of insulin mixed with ISF402. Format: biochemical. From the text:
The effect of ISF402 on the multimerisation of insulin was examined in vitro by mixing insulin with ISF402 and separating molecular complexes by gel filtration chromatography, which separates on the basis of size (FIG. 7).

Series [3] concerns female Zucker fa/fa rats. Nature of the series: Oral ISF402 followed by intraperitoneal insulin tolerance test (IPITT) in female Zucker fa/fa rats. In kind it is in vivo, rat. How it is done:
Female Zucker fa/fa rats were purchased from Monash Animal Services (Monash University, Clayton, Australia). Rats were housed in the Biochemistry and Molecular Biology Animal House (Monash University, Victoria, Australia) and allowed to acclimatize for 7 days in an environmentally controlled room at 22° C. Rats were fed normal chow and water ad libitum. All experiments were performed according to Monash University Animal Care and Ethics Committee guidelines and approved by the Monash University Animal ethics committee. Rats of 16-18 weeks of age were fasted overnight with free access to water then anaesthetised with pentobarbitone (Nembutal, Phone Merieux, QLD, Australia) administered intraperitoneally (IP) at 35 mg/kg body weight. Blood glucose was monitored using Medisense glucometers (Abbott Laboratories, Abbott Park, Ill.) for one hour prior to administration of test substances. ISF402 was administered at 3 mg/kg by IP with 2 U/kg of bovine insulin (n=6) and controls were injected IP with insulin alone (n=8). Two experiments were performed where ISF402 was given orally. In the first experiment, controls were given saline orally by gavage (n=5) and the test group were given ISF402 orally at 15 mg/kg (n=5). After 15 minutes, insulin (2 U/kg) was injected IP. The procedure was repeated three days later with the control rats once again given saline and the treated rats given 30 mg/kg ISF402. A second experiment was performed on a separate group of rats where controls were given saline orally as before (n=5) and treated rats were given ISF402 orally at 30 mg/kg (n=5), followed 15 minutes later by IP injection of 2 U/kg insulin. For both experiments, after administration of peptide blood was collected from the tail vein and glucose measured immediately. Serum samples were also collected for later measurement of C-peptide and insulin using Linco Rat C-peptide and Insulin RIA kits according to the manufacturer's instructions (Linco Research Inc, St Charles, Mo.).

A short description of series [4]: Solubility of ISF402 at various pH and temperatures. Format: physicochemical. Conditions: for solubility at 24 h: 25 mM ammonium bicarbonate buffer. The procedure:
Solid ISF402 was added to 50 μL aliquots of 25 mM ammonium bicarbonate buffer until no more solid dissolved. The total weight of the peptide added to each tube was noted and the pH of each solution was adjusted to approximately pH 8 by the addition of 1 M NaOH. Samples were incubated with constant shaking at either room temperature (23-25° C.) or 37° C. for 24 hours then centrifuged at 16000×g for 15 minutes. 2 μL aliquots of each supernatant were diluted with milliQ-H2O to an estimated concentration of 1 mg/mL. Samples were stored at −20° C. for later analysis by HPLC using UV detection (214 nm) to determine the exact concentration of ISF402. The pH of the remaining supernatant was measured. The pH was lowered by the addition of 2 μL of 5M HCl and tube contents were mixed and incubated under the two temperature conditions. The cycle of pH lowering, incubation and sampling was repeated until a pH of between 2 and 3 was achieved.

The next series has as its system male Zucker fa/fa rats. Nature of the series: Intravenous injection of male Zucker fa/fa rats: blood glucose, serum insulin, C-peptide. The settings on record: 1 U/kg of bovine insulin iv. Format: in vivo, rat. The procedure: The Monash University Animal Ethics Committee approved all procedures performed on experimental animals. Zucker rats were purchased from the Monash University Central Animal Facility. Insulin and ISF401 were injected through the femoral vein while the rat was under anaesthesia (Pentobarbitone) and rats were humanely killed while still unconscious at the end of the procedure. The insulin concentration used for all in vivo experiments was 1 unit per kg of body weight. Blood was collected from the tail vein and glucose concentrations were measured using a Medisense glucometer. Insulin and C-peptide concentrations were measured in serum samples using a Linco Rat Insulin RIA kit according to the manufacturers instructions. Group sizes were between 5 and 8 rats per treatment.
To investigate sex differences in the insulin sensitizing effect of ISF402, age-matched male Zucker fa/fa rats were injected intravenously with ISF402 (1.5 mg/kg) and insulin as described above for female rats. […] In comparison, co-injection of ISF402 with the insulin led to a decrease in blood glucose 20 minutes after injection which remained low for a further 25 minutes (FIG. 13A). The greatest reduction in blood glucose was 0.98±0.31 mmol/L and was achieved 30 minutes after injection. […]

Series [5] deals with female Zucker fa/fa rats. Nature of the series: Intraperitoneal injection of insulin with ISF402 in female Zucker fa/fa rats. In kind it is in vivo, rat. The settings on record: IP, 2 U/kg bovine insulin. The procedure:
Female Zucker fa/fa rats were purchased from Monash Animal Services (Monash University, Clayton, Australia). Rats were housed in the Biochemistry and Molecular Biology Animal House (Monash University, Victoria, Australia) and allowed to acclimatize for 7 days in an environmentally controlled room at 22° C. Rats were fed normal chow and water ad libitum. All experiments were performed according to Monash University Animal Care and Ethics Committee guidelines and approved by the Monash University Animal ethics committee.
Rats of 16-18 weeks of age were fasted overnight with free access to water then anaesthetised with pentobarbitone (Nembutal, Phone Merieux, QLD, Australia) administered intraperitoneally (IP) at 35 mg/kg body weight. Blood glucose was monitored using Medisense glucometers (Abbott Laboratories, Abbott Park, Ill.) for one hour prior to administration of test substances. ISF402 was administered at 3 mg/kg by IP with 2 U/kg of bovine insulin (n=6) and controls were injected IP with insulin alone (n=8). Two experiments were performed where ISF402 was given orally. In the first experiment, controls were given saline orally by gavage (n=5) and the test group were given ISF402 orally at 15 mg/kg (n=5). After 15 minutes, insulin (2 U/kg) was injected IP. […] For both experiments, after administration of peptide blood was collected from the tail vein and glucose measured immediately. […]

Setting [6] is: iv, ISF402 4.5 mg/kg without insulin.
Where [7] appears, read: oral ISF402 followed by IP insulin injection.

The solubility is how much of the substance goes into solution per volume. In the case of `CC(C)[C@H](N)C(=O)N[C@@H](Cc1c[nH]cn1)C(=O)N[C@H](C(=O)N[C@@H](CC(=O)O)C(N)=O)[C@@H](C)O` [ISF402, Val-His-Thr-Asp-NH2] (H-VHTD-NH2), the “response in C2C12 cells (sub-maximal, extracellular acidification)” value in series [1] (0.1 μM ISF402) is approximately 20%. Moreover, in series [1] (in the presence of 0.1 μM ISF402, increasing insulin concentrations), the “cellular response to insulin (extracellular acidification rate, ECAR)” value is “increased”. The “Change in Serum Triglyceride levels compared to the 0 time point” value with female Zucker fa/fa rats [2] (Time 0 minutes) is 0 mg/dL; in the series on female Zucker fa/fa rats [2] (Time 10 minutes) it was “+11.3 ± 5.4 mg/dl”; in the series with female Zucker fa/fa rats [2] (Time 45 minutes) it was −16 ± 7.2^a mg/dl; with female Zucker fa/fa rats [2] (Time 60 minutes), “+44.9 ± 42.7 mg/dl”. Also, in the series on female Zucker fa/fa rats [2] (iv, ISF402 4.5 mg/kg without exogenous insulin), the “maximum reduction in blood glucose” value turned out to be 1.02 ± 0.27 mmol/L. The circulating insulin entry with female Zucker fa/fa rats [2] (setting [6]) is “no observed increase in circulating insulin”. Besides, the “serum C-peptide concentrations” value in the series on female Zucker fa/fa rats [2] (setting [6]) is reported as “reduced”. Further, the “optimum ISF402 dose” value with female Zucker fa/fa rats [2] (iv, co-injected with insulin 1 U/kg) worked out at 1.5 mg/kg. Moreover, the “optimal intravenous dose of ISF402” value with female Zucker fa/fa rats [2] (iv, without exogenous insulin) amounted to 4.5 mg/kg. In addition, in the series with female Zucker fa/fa rats [2] (iv, 0.5-4.5 mg/kg with insulin, 3-10 mg/kg alone, AUC over 60 minutes (FIG. 2A)), the “glucose lowering response across the range of ISF402 doses” value was “dose dependent and bell shaped”. Further, the “magnitude of the maximal reduction in blood glucose compared to controls” value in the series on female Zucker fa/fa rats [2] (iv, ISF402 4.5 mg/kg vs saline, ISF402 1.5 mg/kg with insulin vs insulin alone) was determined as 0.95 mmol/L. In addition, the “effect on the size of the insulin multimer” value on insulin multimer was “reduces the size of the insulin multimer”. For the same compound, at insulin multimer (insulin without pre-mixing eluted at 14-15 mL), the “elution volume of insulin when mixed with ISF402” value lay in the range of 16 to 17 mL. Besides, the “blood glucose in IPITT compared to control” value in the series on female Zucker fa/fa rats [3] (ISF402 15 mg/kg oral, insulin 2 U/kg IP 15 minutes later) is “did not reach statistical significance”; with female Zucker fa/fa rats [3] (single dose of 30 mg/kg ISF402 oral by gavage), “significant decrease in blood glucose”. In the series with female Zucker fa/fa rats [3] (ISF402 30 mg/kg oral to the same rats three days after 15 mg/kg), the “blood glucose in IPITT compared to the insulin-injected control group” value is “significant reduction in blood glucose”. The “time of greatest decrease in blood glucose after administration” value with female Zucker fa/fa rats [3] (oral 30 mg/kg ISF402, IPITT) came to 2 h. In addition, the C-peptide concentrations entry with female Zucker fa/fa rats [3] (setting [7]) is on record as “did not change”. Moreover, the circulating insulin concentrations entry with female Zucker fa/fa rats [3] (setting [7]) is “did not change”. The solubility at 24 h in series [4] (37° C., pH 6, read-out: minimum solubility) is 179 mg/mL (≈ 381 mM); in series [4] (both at room temperature and 37° C., below pH 4.6 and above pH 6.9, read-out: solubility) it was 300 to 450 mg/mL (≈ 639 to 958 mM); in series [4] (room temperature, pH 6.3, read-out: lowest solubility), 165 mg/mL (≈ 351 mM). Moreover, the “pH of minimum solubility” value in series [4] (both temperatures) is 5.7-6.3.
Regarding “Insulin: Insulin (Bovine pancreas) containing 0.6% zinc, purchased from Sigma”, the “Change in Serum Triglyceride levels compared to the 0 time point” value was 0 mg/dL in the series on female Zucker fa/fa rats [2] (Time 0 minutes), “+39.6 ± 15.1 mg/dl” in the series on female Zucker fa/fa rats [2] (Time 10 minutes), “+21.1 ± 23.9 mg/dl” in the series on female Zucker fa/fa rats [2] (Time 45 minutes) and “+33.3 ± 19.8 mg/dl” in the series on female Zucker fa/fa rats [2] (Time 60 minutes). The “blood glucose response to insulin alone” value is reported as “small decrease in blood glucose” with female Zucker fa/fa rats [2] (female rats, 1 U/kg of bovine insulin iv) and “no decrease at all” with male Zucker fa/fa rats. Further, the “maximum reduction in blood glucose” value in the series on female Zucker fa/fa rats [2] (iv, insulin 1 U/kg + ISF402 1.5 mg/kg, or insulin alone at the same time point) stood at 0.68 ± 0.22 mmol/L. In the series on female Zucker fa/fa rats [5], the “blood glucose after insulin alone” value is on record as “only a small reduction in blood glucose”.
